Source: BindingDB's records for doi:10.1021/jm00017a003 (Sterling Winthrop Pharmaecuticals Research Division, 1995)

Experiment: The compound was tested for inhibition of HIV-1 replication in SW480 cells using HIV tat assay

Row | SMILES | IC50 [µM]
1 | C[C@@]12CCCC[C@]13O[C@@H]3C(=O)C(C#N)C2 (some centres not stated) | 34
2 | C[C@]12CCCC[C@]1(O)[C@H](Cl)C(=O)C(C(N)=O)C2 (some centres not stated) | 32.1
3 | C[C@]12CCCC[C@@]13O[C@H]3C(=O)C(C#N)C2 (some centres not stated) | 278
4 | C[C@@]12CCCC[C@@]1(O)[C@@H](Cl)C(=O)C(C(=O)Nc1ccccc1)C2 (some centres not stated) | 7
5 | C[C@]12CC[C@H]3[C@@H](CC[C@@]45O[C@@H]4C(=O)C(S(=O)(=O)c4ccccc4)C[C@]35C)[C@@H]1CC[C@@H]2O (some centres not stated) | 10.3
6 | CC(=O)O[C@H]1CC[C@H]2[C@@H]3CC[C@@]45O[C@@H]4C(=O)C(S(C)(=O)=O)C[C@]5(C)[C@H]3CC[C@]12C (some centres not stated) | 2.6
7 | CC(=O)O[C@H]1CC[C@H]2[C@@H]3CC[C@@]45O[C@@H]4C(=O)C(C(N)=O)C[C@]5(C)[C@H]3CC[C@]12C (some centres not stated) | 2.6
8 | C[C@]12CC[C@H]3[C@@H](CC[C@@]45O[C@@H]4C(=O)C(C(N)=O)C[C@]35C)[C@@H]1CC[C@@H]2O (some centres not stated) | 14.3
9 | COc1ccc(NC(=O)C2C[C@]3(C)CCCC[C@@]3(O)[C@@H](Cl)C2=O)cc1 (some centres not stated) | 33.5
10 | C[C@@]12CCCC[C@]13O[C@@H]3C(=O)C(C(=O)Nc1ccccc1)C2 (some centres not stated) | 2.8
11 | CC(=O)O[C@H]1CC[C@H]2[C@@H]3CC[C@@]45O[C@@H]4C(=O)C(C#N)C[C@]5(C)[C@H]3CC[C@]12C (some centres not stated) | 24.5
12 | CC(=O)O[C@H]1CC[C@H]2[C@@H]3CC[C@@]4(O)[C@@H](Cl)C(=O)C(C(N)=O)C[C@]4(C)[C@H]3CC[C@]12C (some centres not stated) | 8.4
13 | COc1ccc(NC(=O)C2C[C@]3(C)CCCC[C@]34O[C@@H]4C2=O)cc1 (some centres not stated) | 25.7
14 | C[C@@]12CCCC[C@@]1(O)[C@@H](Cl)C(=O)C(C(N)=O)C2 (some centres not stated) | 16.5
15 | C[C@@]12CCCC[C@]13O[C@@H]3C(=O)C(C(N)=O)C2 (some centres not stated) | 9.9
16 | C[C@]12CCCC[C@@]13O[C@H]3C(=O)C(C(N)=O)C2 (some centres not stated) | 72
17 | C[C@]12CC[C@H]3[C@@H](CC[C@@]45O[C@@H]4C(=O)CC[C@]35C)[C@@H]1CC[C@@H]2O | 15.4
18 | COc1ccc(NC(=O)C2CC(C)(C)C3OC3C2=O)cc1 (configuration not stated) | 21.4
19 | C[C@]12CCC3C(CC[C@@]45O[C@@H]4C(=O)C(S(C)(=O)=O)C[C@]35C)C1CC[C@@H]2O (some centres not stated) | 8.4
20 | COC(=O)C1C[C@]2(C)[C@H]3CC[C@]4(C)[C@@H](OC(C)=O)CC[C@H]4[C@@H]3CC[C@]23O[C@@H]3C1=O (some centres not stated) | 2.7
21 | CC1(C)CC(C(=O)Nc2c(Cl)cccc2Cl)C(=O)C2OC21 (configuration not stated) | 31.7
22 | COC(=O)C1C[C@]2(C)[C@H]3CC[C@]4(C)[C@@H](O)CC[C@H]4[C@@H]3CC[C@]23O[C@@H]3C1=O (some centres not stated) | 3.6
